According to patent US8293724B2, “Therapeutic applications of fatty acid amide hydrolase inhibitors” (The United States of America, as represented by the …, priority 2007, dated 2012):

How the values were obtained:
FAAH = biological target: T1, FAAH (Rattus norvegicus, UniProt P97612); test: FAAH inhibition in vitro, crude rat brain homogenate with [3H]anandamide; type: biochemical
T1 construct: from tissue; host or cells: liver of SHR and WKY rats treated in vivo
T1 sequence (P97612 1-579): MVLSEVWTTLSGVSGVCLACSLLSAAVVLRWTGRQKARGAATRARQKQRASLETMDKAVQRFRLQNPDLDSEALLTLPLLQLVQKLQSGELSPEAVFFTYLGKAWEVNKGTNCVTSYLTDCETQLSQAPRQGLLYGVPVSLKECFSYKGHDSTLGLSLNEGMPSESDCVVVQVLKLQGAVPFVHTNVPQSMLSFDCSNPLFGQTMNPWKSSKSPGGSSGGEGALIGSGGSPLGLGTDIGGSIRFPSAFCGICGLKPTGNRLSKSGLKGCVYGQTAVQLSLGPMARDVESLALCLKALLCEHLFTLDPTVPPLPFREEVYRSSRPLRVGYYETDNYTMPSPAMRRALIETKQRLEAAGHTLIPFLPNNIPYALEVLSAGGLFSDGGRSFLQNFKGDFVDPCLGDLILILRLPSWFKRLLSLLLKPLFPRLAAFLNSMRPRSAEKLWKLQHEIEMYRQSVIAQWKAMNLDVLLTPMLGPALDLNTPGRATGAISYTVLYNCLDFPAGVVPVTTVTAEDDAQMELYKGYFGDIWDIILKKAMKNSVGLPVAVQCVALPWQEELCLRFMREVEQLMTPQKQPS
Experimental: This example describes a general method for assaying FAAH inhibition by the disclosed compounds and determining their IC50 values in vitro (Deutsch, D. G. and S. A. Chin, Biochem. Pharmacol. 46:791-796 (1993)). The indicated amount of each compound was preincubated in a buffer consisting of 300 μg of crude rat brain homogenate protein, 500 μg/ml fatty acid-free bovine serum albumin, in phosphate-buffered saline in a final volume of 1.0 ml, for 10 minutes at 37° C. Crude rat brain homogenate was obtained by decapitating female adult Sprague-Dawley rats, dissecting the desired tissue and homogenizing in five volumes of ice-cold TE (10 mM Tris-HCl, 1 mM EDTA, pH 7.6). Substrate ([…] anandamide+0.2 µCi of 221 Ci/mmol [^3H]anandamide ([arachidonyl-5,6,8,9,11,12,14,15-^3H]ethanolamide)) was then added and the samples incubated for 10 minutes. The reaction was quenched by the addition of chloroform:methanol (1:1) and enzyme activity was analyzed by TLC.

CB2 cannabinoid receptor = CB2 cannabinoid receptor (Homo sapiens, UniProt P34972); test: Affinity for the CB2 cannabinoid receptor; type: binding
[1] = tested on: spontaneously hypertensive rat (SHR); test: Hemodynamic measurements in anesthetized spontaneously hypertensive rats; type: in vivo
Experimental: Anandamide, the CB1 receptor antagonist AM251, and the anandamide transport inhibitors AM404 and OMDM-2 were obtained from Tocris; and the CB1 antagonist SR141716 and the CB2 antagonist SR144528 were from the National Institute on Drug Abuse drug supply program. Drugs were mixed in corn oil and sonicated for 5 minutes at 4° C. The mixture was added to 4 parts of Pluronic F68 (Sigma-Aldrich) solution (40 mg/mL) dissolved in water and sonicated to obtain a stable suspension for bolus intravenous injections.
Rats were obtained from Harlan (Indianapolis, Ind.). Male, 8- to 10-month-old SHR, age-matched male Wistar-Kyoto rats (WKY), and 8- to 10-week-old male Sprague-Dawley rats were maintained on standard rat chow and water ad libitum. Dahl salt-sensitive and salt-resistant rats (male, Rapp strain, 6 weeks old) were maintained for 4 weeks on rat chow containing either 0.12% or 8% NaCl. […] Hypertension was induced in Sprague-Dawley rats by chronic infusion of angiotensin II (60 ng/min) via an osmotic minipump (Imig et al. Hypertension 2002; 39: 690-694. Rats were used 10 to 12 days after implantation of the minipump.
For hemodynamic measurements, rats were anesthetized with pentobarbital sodium (60 mg/kg IP) and tracheotomized to facilitate breathing. Animals were placed on controlled heating pads, and core temperature, measured via a rectal probe, was maintained at 37° C. A microtip pressure-volume catheter (SPR-838; Millar Instruments) was inserted into the right carotid artery and advanced into the left ventricle (LV) under pressure control as described previously. Polyethylene cannulae (P50) were inserted into the right femoral artery and vein for measurement of mean arterial pressure (MAP) and administration of drugs, respectively. […] Heart rate, maximal LV systolic pressure, MAP, and maximal slope of systolic pressure increment (+dP/dt) were computed with a cardiac pressure-volume analysis program (PVAN2.9; Millar). Cardiac output calculated and corrected according to in vitro and in vivo volume calibrations with PVAN2.918 was normalized to body weight (cardiac index [CI]). Total peripheral resistance index (TPRI) was calculated by the equation TPRI=MAP/CI. In 3 experiments, drugs were microinjected into the fourth cerebral ventricle as described by Ramirez-Gonzalez et al. Circ Res. 1983; 53, 150-157.
Time-dependent variables were analyzed by ANOVA followed by the Dunnett post hoc test. In other cases, the Student t test was used, as appropriate. Values with P<0.05 were considered statistically significant.

[2] = AM3506 bolus 1 mg/kg, anesthetized SHR, FIG. 7

CB2 cannabinoid receptor, sequence (P34972 whole entry): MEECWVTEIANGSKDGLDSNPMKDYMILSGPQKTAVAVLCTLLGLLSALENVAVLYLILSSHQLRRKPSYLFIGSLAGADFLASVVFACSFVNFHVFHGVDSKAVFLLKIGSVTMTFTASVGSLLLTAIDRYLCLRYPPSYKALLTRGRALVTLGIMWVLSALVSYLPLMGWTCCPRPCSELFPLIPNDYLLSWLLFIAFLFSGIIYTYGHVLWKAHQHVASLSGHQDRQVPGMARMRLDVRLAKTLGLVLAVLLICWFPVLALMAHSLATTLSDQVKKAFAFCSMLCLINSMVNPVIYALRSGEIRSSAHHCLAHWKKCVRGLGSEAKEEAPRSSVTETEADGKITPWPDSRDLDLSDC

SMILES: O=S(=O)(F)CCCCCc1ccc(O)cc1 [AM3506]
- Ki (FAAH): 31 nM
- Ki (CB2 cannabinoid receptor): 5770 nM
- lowering of blood pressure ([1]; AM3506 0.3 mg/kg i.v., SHR): 90 mmHg
- dose equivalence in producing hypotension ([1]; AM3506 1 mg/kg versus URB597 10 mg/kg): equieffective with 10 mg/kg URB597
- cardiac contractility [1, 2]: significantly decreases
- cardiac output [1, 2]: reduced
- left ventricular end systolic pressure (LVESP) [1, 2]: decreases
- maximal slope of the systolic pressure increment (dP/dt) [1, 2]: decrease
- stroke volume [1, 2]: reduced
- blood pressure effect ([1]; AM3506 intravenously 1 mg/kg in 50 μl, anesthetized SHR, FIG. 1): hypotensive effect
